The target in assay [1] is T1, human TTK (Homo sapiens, UniProt P33981).
T1 construct: Active TTK was purchased from Invitrogen as an amino terminal GST fusion of full length human TTK; purchased Invitrogen
T1 sequence (P33981 1-857): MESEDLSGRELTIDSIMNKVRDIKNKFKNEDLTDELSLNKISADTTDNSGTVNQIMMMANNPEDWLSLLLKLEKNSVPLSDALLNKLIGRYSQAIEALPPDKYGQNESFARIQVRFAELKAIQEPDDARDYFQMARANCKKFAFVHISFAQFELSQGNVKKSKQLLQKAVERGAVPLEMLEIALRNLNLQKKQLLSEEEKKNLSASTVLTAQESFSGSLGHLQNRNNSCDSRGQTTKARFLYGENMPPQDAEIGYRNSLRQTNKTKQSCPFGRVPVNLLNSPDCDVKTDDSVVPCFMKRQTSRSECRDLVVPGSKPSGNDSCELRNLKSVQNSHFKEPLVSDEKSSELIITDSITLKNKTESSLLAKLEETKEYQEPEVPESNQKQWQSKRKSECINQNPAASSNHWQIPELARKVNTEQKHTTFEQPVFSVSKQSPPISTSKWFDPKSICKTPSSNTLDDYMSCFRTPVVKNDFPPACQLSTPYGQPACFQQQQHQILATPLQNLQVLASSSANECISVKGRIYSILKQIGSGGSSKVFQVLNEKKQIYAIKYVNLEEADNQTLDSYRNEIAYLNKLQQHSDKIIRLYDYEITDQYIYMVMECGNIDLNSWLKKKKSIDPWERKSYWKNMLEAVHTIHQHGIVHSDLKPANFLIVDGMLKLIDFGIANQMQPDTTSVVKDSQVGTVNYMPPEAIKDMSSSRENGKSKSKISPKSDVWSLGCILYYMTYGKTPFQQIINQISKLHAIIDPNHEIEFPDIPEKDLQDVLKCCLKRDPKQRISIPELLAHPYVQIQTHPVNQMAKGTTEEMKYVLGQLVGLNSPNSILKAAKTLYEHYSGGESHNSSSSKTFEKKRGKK
As to the kind of experiment: TTK inhibition assay (indirect ELISA). The assay is classed as biochemical. In short, it runs like this:
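Activity detected by indirect ELISA after compounds sat with full-length GST-TTK for 5 min prior to starting the reaction with ATP. IC50 came from a four-parameter logistic curve of % inhibition, calculated against background and uninhibited control wells.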

Assay [2] relates to colon cancer cells (HCT116). As to the kind of experiment: Cancer cell line growth inhibition, Sulforhodamine B assay, HCT116. The assay is classed as cell-based. As to conditions: Homo sapiens, HCT-116, HCT116 colon cancer cell line; read-out: Cancer Cell Line GI50 Range HCT116. A digest of the protocol:
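HCT116 cells, 1000–4000 per well, seeded 24 h ahead, then treated 5 days with compound at 10 nM to 50 μM final in DMEM with 10% FBS. Growth measured by sulforhodamine B staining after TCA fixation, A570; GI50 from inhibition relative to DMSO-only cells.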

In assay [3] the test system is breast cancer cells (MDA-MB-468). In words: Cancer cell line growth inhibition, Sulforhodamine B assay, MDA-MB-468. The class given is cell-based. As to conditions: Homo sapiens, MDA-MB-468, MDA-MB-468 breast cancer cell line; read-out: Cancer Cell Line GI50 Range MDA-MB-468. In short, it runs like this: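 MDA-MB-468 cells exposed 5 days to compound at final 10 nM to 50 μM in DMEM with 10% FBS. Growth measured by sulforhodamine B protein staining after TCA fixation, absorbance 570 nm; inhibition relative to DMSO-only cells, GI50 determined for cytotoxic compounds.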
On the technique in general: In SRB staining, fixed cells bind dye roughly in proportion to their protein.

Assay [4] relates to ovarian cancer cells (OVCAR-3). In words: Cancer cell line growth inhibition, Sulforhodamine B assay, OVCAR-3. The class given is cell-based. As to conditions: Homo sapiens, OVCAR-3, OVCAR-3 ovarian cancer cell line; read-out: Cancer Cell Line GI50 Range OVCAR-3. In short, it runs like this: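 OVCAR-3 cells were seeded 24 h before compound addition, then exposed for 5 days to final concentrations of 10 nM to 50 μM in DMEM with 10% FBS. Growth was measured by TCA fixation and sulforhodamine B staining with absorbance at 570 nm. Inhibition was relative to DMSO-only cells, and GI50 came from curve fitting.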

Assay [5] relates to Ovarian 2393A tumor initiating cells. In words: Tumor-initiating cell growth inhibition, Alamar Blue assay, ovarian TICs. The class given is cell-based. As to conditions: 144 h; Ovarian 2393A TICs, 6 days; read-out: Tumor Initiating Cell GI50 Range Ovarian 2393A. The text has this:
(§1) Non-tissue or tissue cultured treated T-75 flask and 96-well plates were purchased from VWR. Vitamin B-27 supplement, MEM NEAA (minimum essential medium non essential amino acids), sodium pyruvate, L-glutamine, N2 supplement, penicillin-streptomycin and fungizone/amphotericin B were obtained from Invitrogen. Lipid mixture, heparin and EGF were purchased from Sigma; bFGF from BD Biosciences. Tumor Initiating Cells (TICs) from colon were routinely maintained using non-tissue cultured treated T-75 flasks in DMEM:F12 medium containing 0.2XB-27 supplement, 4 ug/ml heparin, 1×MEM NEAA, 1×sodium pyruvate, 1 mM glutamine, 10 pg/ul bFGF, 20 pg/ul EGF, 1× N2 supplement, lipid mixture, penicillin-streptomycin and fungizone/amphotericin B. Ovarian TICs were routinely maintained using tissue cultured treated T-75 flasks in DMEM:F12 medium containing IXB-27 supplement, 4 ug/ml heparin, 20 pg/ul bFGF, 20 pg/ul EGF and penicillin-streptomycin.
(§2) Compounds described herein were dissolved in DMSO and further diluted in cell culture medium for GI50 determination. Colon TICs were trypsinized and seeded into non-tissue cultured treated 96-well plates with 4,000 cells/well. After 24 h, compound was added into the cell culture at different concentrations, and the final concentration of DMSO was adjusted to 0.1%. Cells were then cultured at 37° C. for 9 days. Ovarian TICs were trypsinized and seeded into tissue cultured treated 96-well plates with 1,000 cells/well. After 24 h, compound was added into the cell culture at different concentrations, and the final concentration of DMSO was adjusted to 0.1%. Cells were then cultured at 37° C. for 6 days. Cell viability was assessed by Alamar Blue assay: 10 ul of Alamar Blue was added into each well. After 4 hours incubation at 37° C., fluorescence was recorded at excitation 544 and emission 590. GI50 (Growth inhibition) was calculated using GraphPad Prism 4.0 software.
(§3) In Table 1 below, GI50 value ranges for compound examples against TICs (Colon 12 and Ovarian 2393A) are given.
In general terms: The colour change of resazurin is a common sign of viable cells or microbes.

Assay [6] deals with Colon 12 tumor initiating cells. In words: Tumor-initiating cell growth inhibition, Alamar Blue assay, colon TICs. The assay is classed as cell-based. As to conditions: 216 h; Colon 12 TICs, 9 days; read-out: Tumor Initiating Cell GI50 Range Colon 12.
Description: as §1, §2, §3

[7] abbreviates: 16 μM ATP (Sigma cat# A7699), read-out: TTK IC50 Range (denoted with an asterisk).
The mark [8] stands for this setting: 100 μM ATP, read-out: TTK IC50 Range.

The structures appear in SMILES notation. pIC50: −log10 of the molar value. Like-named read-outs stand apart in the source and are kept apart here.

Broadly, the pIC50 is the IC50 on a negative log10 scale, so that one unit is a factor of ten. The term GI50 denotes the concentration at which growth is held to half of that of the control.

Turning to `Cc1cc(-c2cnn3c(NCC4CCOCC4)nc(Oc4cccc(F)c4)nc23)ccc1C(=O)NC1CC1` [Example C21], in assay [1] (setting [7]), the pIC50 was greater than 7.00. In addition, the GI50 in assay [2], in assay [3], in assay [4], in assay [5] and in assay [6] was no more than 100 nM each time.
In the case of `Cc1cc(-c2cnn3c(NC[C@H]4C[C@H](O)C4)cc(NC4CCOCC4)nc23)ccc1C(=O)NC1CC1` [Example C145], the pIC50 in assay [1] (setting [8]) was greater than 7.00. Also, the GI50 in assay [2], in assay [3], in assay [4], in assay [5] and in assay [6] was 100 to 500 nM in each case.
As for `O=C(NC1CC1)c1ccc(-c2cnn3c(NCC4CCOCC4)nc(Oc4ccccc4)nc23)cc1F` [Example C7], the pIC50 in assay [1] (setting [7]) is greater than 7.00. Besides, the 50% growth inhibitory concentration (GI50) in assay [2] is greater than 500 nM; in assay [3], greater than 500 nM; in assay [4] it was greater than 500 nM; in assay [5], 100 to 500 nM; in assay [6], 100 to 500 nM.
With `Cc1cc(-c2cnn3c(NCCN4CCOCC4)cc(Oc4cccc(F)c4F)nc23)ccc1C(=O)NC1CC1` [Example C32, N-cyclopropyl-4-(5-(2,3-difluorophenoxy)-7-((2-morpholinoethyl)amino)pyrazolo[1,5-a]pyrimidin-3-yl)-2-methylbenzamide], in assay [1] (setting [8]), the pIC50 is greater than 7.00. For the same molecule, the GI50 in assay [2], in assay [3], in assay [4], in assay [5] and in assay [6] was no more than 100 nM each time.
With `Cc1cc(-c2cnn3c(NCC4COC4)cc(Oc4cccnc4)nc23)ccc1C(=O)NC1CC1` [Example C100], the pIC50 in assay [1] (setting [8]) was greater than 7.00. Also, the GI50 in assay [2] is 100 to 500 nM; in assay [3], 100 to 500 nM; in assay [4] it was 100 to 500 nM; in assay [5], no more than 100 nM; in assay [6] it was no more than 100 nM.
`Cc1cc(-c2cnn3c(NCC4CCOCC4)cc(N[C@H]4CCCC[C@H]4O)nc23)ccc1C(=O)NC1CC1` [Example C39, N-cyclopropyl-4-(5-(((1S,2R)-2-hydroxycyclohexyl)amino)-7-(((tetrahydro-2H-pyran-4-yl)methyl)amino)pyrazolo[1,5-a]pyrimidin-3-yl)-2-methylbenzamide]: the negative logarithm of the IC50 (pIC50) in assay [1] (setting [8]) was greater than 7.00. For the same molecule, the GI50 in assay [2], in assay [3], in assay [4], in assay [5] and in assay [6] was no more than 100 nM in each case.
`Cc1cc(-c2cnn3c(NCC4CCOCC4)cc(N[C@H]4CCN(C5COC5)C4)nc23)ccc1C(=O)NC1CC1` [Example C120]: in assay [1] (setting [8]), the pIC50 is greater than 7.00. In addition, the 50% growth inhibitory concentration (GI50) is 100 to 500 nM in assay [2]; 100 to 500 nM in assay [3]; greater than 500 nM in assay [4]; greater than 500 nM in assay [5]; greater than 500 nM in assay [6].
Turning to `Cc1cc(-c2cnn3c(NCCN4CCOCC4)nc(Oc4cccc(F)c4F)nc23)ccc1C(=O)NC1CC1` [Example C26], the pIC50 in assay [1] (setting [7]) is greater than 7.00. The GI50 in assay [2] is no more than 100 nM; in assay [3], 100 to 500 nM; in assay [4], 100 to 500 nM; in assay [5], no more than 100 nM; in assay [6] it was no more than 100 nM.
As to `Cc1cc(-c2cnn3c(NCC4CCOCC4)nc(Nc4ccccc4)nc23)ccc1C(=O)NC1CC1` [Example C10], the negative-log IC50 (pIC50) in assay [1] (setting [7]) is greater than 7.00. Besides, the concentration for 50% growth inhibition (GI50) in assay [2], in assay [3], in assay [4], in assay [5] and in assay [6] was greater than 500 nM in each case.
Take `Cc1cc(-c2cnn3c(NCC4CCOCC4)cc(NC4(CO)CCCC4)nc23)ccc1C(=O)NC1CC1` [Example C45]: the pIC50 in assay [1] (setting [8]) was greater than 7.00. The GI50 in assay [2] is no more than 100 nM; in assay [3] it was no more than 100 nM; in assay [4], no more than 100 nM; in assay [5], 100 to 500 nM; in assay [6], no more than 100 nM.
For the molecule `Cc1cc(-c2cnn3c(NCC4CCN(C)CC4)cc(Oc4cccc(F)c4)nc23)ccc1C(=O)NC1CC1` [Example C46, N-cyclopropyl-4-(5-(3-fluorophenoxy)-7-(((1-methylpiperidin-4-yl)methyl)amino)pyrazolo[1,5-a]pyrimidin-3-yl)-2-methylbenzamide], the pIC50 in assay [1] (setting [8]) is greater than 7.00. Further, the GI50 is no more than 100 nM in assay [2]; no more than 100 nM in assay [3]; 100 to 500 nM in assay [4]; no more than 100 nM in assay [5]; no more than 100 nM in assay [6].
For `Cc1cc(-c2cnn3c(NCCN4CCOCC4)cc(Oc4cccc(F)c4)nc23)ccc1C(=O)NC1CC1` [Example C31, N-cyclopropyl-4-(5-(3-fluorophenoxy)-7-((2-morpholinoethyl)amino)pyrazolo[1,5-a]pyrimidin-3-yl)-2-methylbenzamide], the negative logarithm of the IC50 (pIC50) in assay [1] (setting [8]) is greater than 7.00. The concentration for 50% growth inhibition (GI50) in assay [2], in assay [3], in assay [4], in assay [5] and in assay [6] was no more than 100 nM in each case.
With `Cc1cc(-c2cnn3c(NCC4CC4)cc(N[C@H]4CCCC[C@H]4O)nc23)ccc1C(=O)NC1CC1` [Example C42, N-cyclopropyl-4-(7-((cyclopropylmethyl)amino)-5-(((1S,2R)-2-hydroxycyclohexyl)amino)pyrazolo[1,5-a]pyrimidin-3-yl)-2-methylbenzamide], the pIC50 in assay [1] (setting [8]) was greater than 7.00. Besides, the concentration for 50% growth inhibition (GI50) in assay [2], in assay [3], in assay [4], in assay [5] and in assay [6] was no more than 100 nM each time.
